# “Also recorded” adds a separate entry of the source. Read-outs that look alike come from different tables or passages of the source.
# Key:
# MDA-MB-435 cancer cells = assay: Antiproliferative effect in MDA-MB-435 cancer cells (SRB assay); type: cell-based; conditions: Table 2, read-out: MDA-MB-435 IC50
# A-10 cells = assay: Microtubule depolymerization, cell-based phenotypic assay in A-10 cells
# purified tubulin = assay: Inhibition of tubulin assembly (Section II); type: biochemical; conditions: Table 5; Section II compounds; read-out: Inhibition of tubulin assembly IC50 ± SD
# Protocol: The effects of 3, 4, 6, 7 and 9 on the polymerization of purified tubulin were evaluated (Table 5). This allows a study of the direct interaction of these compounds with their intracellular target. The ability of these compounds to bind to the colchicine site on tubulin was evaluated by measuring inhibition of [^3H]colchicine binding to tubulin.
# Parental SK-OV-3 = assay: Antiproliferative activity, parental SK-OV-3; type: cell-based; conditions: Homo sapiens, Table 6, read-out: IC50 ± SD Parental SK-OV-3
# [1] = system: Pgp expressing SK-OV-3 MDR1-6-6; assay: Antiproliferative activity, Pgp expressing SK-OV-3 MDR1-6-6; type: cell-based; conditions: Homo sapiens
# Parental HeLa = assay: Antiproliferative activity, parental HeLa; type: cell-based; conditions: Homo sapiens, Table 7, read-out: IC50 ± SD Parental HeLa
# Source text: (§1) Another clinically relevant drug resistance mechanism of tubulin-targeting agents is the overexpression of the βIII isotype of tubulin.
# [2] = system: tubulin (colchicine site); assay: Inhibition of [3H]colchicine binding to tubulin (Section III); conditions: 5 μM; Section III compounds
# Parental OVCAR-8 = assay: Antiproliferative effect, parental OVCAR-8 (SRB assay); type: cell-based; conditions: Homo sapiens, Table 10, n = 3, read-out: IC50 ± SD Parental OVCAR-8
# [3] = system: P-gp Overexpressing NCI/ADR-RES; assay: Antiproliferative effect, P-gp overexpressing NCI/ADR-RES (SRB assay); conditions: Homo sapiens, read-out: IC50 ± SD P-gp Overexpressing NCI/ADR-RES
# [4] = Metabolite identification of 3 with human liver microsomes by LC/MS/MS; type: in vitro ADME
# Source text: Compound 3 (Table 4), the para-methylthiophenyl substituted cyclopenta[d]pyrimidne, was designed to decrease the possible demethylation. […] Thus, the methylsulfinyl analog 4 (Table 4) and the methylsulfonyl analog 5 (Table 4) were also synthesized to determine their antiproliferative potencies. […] The electron donating, para-methylamino moiety of 8 (Table 1) and the para-dimethylamino moiety of 9 (Table 4) were designed as isosteric replacements of the O-methoxy moiety. According to the literature,^7 8 should be the major metabolite of 9. […] Compound 13 (Table 4), replaced the phenyl ring with a cyclohexyl ring to determine the importance of π-stacking interaction of the aniline ring. The variations proposed of compounds 10-13 would also serve as structural means to decrease the O-demethylation. […] Similarly, 9 could also function as a potential long acting agent, since the metabolites of both 3 and 9 are anticipated to be potent compounds against tumor cells. Section II Compounds Chemistry:
# FIG. 7a) HPLC spectra of 3 incubated with human liver microsomes at 0 and 60 min. Metabolites M1-M5 and parent 3 were illustrated on the spectra. FIG. 7b) MS and MS/MS spectrum of 3. FIG. 7c) MS and MS/MS spectrum of M1 (compound 5). FIG. 7d) MS and MS/MS spectrum of M2 (compound 4). FIG. 7e) Fragmentation of M1 and M2 (MS/MS 239.1340).
# PDGFR-β = PDGFR-β (Homo sapiens, UniProt P09619); assay: Kinase inhibition, whole-cell assay, PDGFR-β; type: cell-based; conditions: Table 1; IC50 ± SD; read-out: Kinase inhibition IC50 [whole-cell assays] PDGFR-β
# EGFR = EGFR (Homo sapiens, UniProt P00533); assay: Kinase inhibition, whole-cell assay, EGFR; type: cell-based; conditions: Table 1; IC50 ± SD; read-out: Kinase inhibition IC50 [whole-cell assays] EGFR
# [5] = system: NCI/ADR resistant tumor model; assay: NCI/ADR-RES xenograft trial (resistant tumor model); type: in vivo, mice; conditions: day 11, AG165 75 mg/kg
# Source text: AG165 in MDA-MB-435 xenograph model:
# MDA-MB-435 xenograft = MDA-MB-435 xenograft trial; conditions: for adverse effects / toxicity in xenograft trial: cumulative dosing; for antitumor effects: MDA-MB-435 xenograft
# MDA-MB-231 xenograft = MDA-MB-231 xenograft trial
# [6] = system: β-III overexpressing HeLa; assay: Antiproliferative activity, β-III overexpressing HeLa; type: cell-based; conditions: Homo sapiens, HeLa; Table 7; read-out: IC50 ± SD β-III overexpressing HeLa
# Source text: as §1
# [7] = IP 75 mg/kg, listed as AG 165, 75 mg/kg
# PDGFR-β, sequence (P09619 33-1106, species assumed): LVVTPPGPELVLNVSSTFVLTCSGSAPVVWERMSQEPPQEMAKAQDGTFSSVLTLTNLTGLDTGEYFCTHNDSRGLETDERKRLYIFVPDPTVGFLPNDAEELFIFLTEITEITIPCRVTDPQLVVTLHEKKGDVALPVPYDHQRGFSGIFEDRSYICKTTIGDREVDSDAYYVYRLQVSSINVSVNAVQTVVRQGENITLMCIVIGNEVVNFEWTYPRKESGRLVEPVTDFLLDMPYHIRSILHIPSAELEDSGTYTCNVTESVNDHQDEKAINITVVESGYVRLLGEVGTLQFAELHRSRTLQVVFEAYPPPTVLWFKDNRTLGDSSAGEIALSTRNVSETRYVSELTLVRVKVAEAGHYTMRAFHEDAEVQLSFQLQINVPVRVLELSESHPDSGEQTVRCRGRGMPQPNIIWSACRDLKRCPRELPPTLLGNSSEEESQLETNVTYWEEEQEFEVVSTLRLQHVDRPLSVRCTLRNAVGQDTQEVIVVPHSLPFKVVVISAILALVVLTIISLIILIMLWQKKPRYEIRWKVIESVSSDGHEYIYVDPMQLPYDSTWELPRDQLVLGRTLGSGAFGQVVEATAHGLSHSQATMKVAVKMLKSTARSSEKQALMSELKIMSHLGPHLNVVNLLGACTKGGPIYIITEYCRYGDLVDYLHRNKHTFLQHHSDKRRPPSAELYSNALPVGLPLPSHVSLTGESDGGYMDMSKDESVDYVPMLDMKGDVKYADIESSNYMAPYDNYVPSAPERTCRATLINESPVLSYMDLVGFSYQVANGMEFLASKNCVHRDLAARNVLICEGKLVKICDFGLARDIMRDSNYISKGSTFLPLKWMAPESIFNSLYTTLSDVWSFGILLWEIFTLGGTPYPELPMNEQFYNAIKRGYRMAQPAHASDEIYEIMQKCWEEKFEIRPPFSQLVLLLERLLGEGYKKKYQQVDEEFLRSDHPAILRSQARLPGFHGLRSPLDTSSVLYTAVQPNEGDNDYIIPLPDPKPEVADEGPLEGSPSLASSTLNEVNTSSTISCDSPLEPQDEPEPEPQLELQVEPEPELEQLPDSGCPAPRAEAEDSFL
# EGFR, sequence (P00533 25-1210, species assumed): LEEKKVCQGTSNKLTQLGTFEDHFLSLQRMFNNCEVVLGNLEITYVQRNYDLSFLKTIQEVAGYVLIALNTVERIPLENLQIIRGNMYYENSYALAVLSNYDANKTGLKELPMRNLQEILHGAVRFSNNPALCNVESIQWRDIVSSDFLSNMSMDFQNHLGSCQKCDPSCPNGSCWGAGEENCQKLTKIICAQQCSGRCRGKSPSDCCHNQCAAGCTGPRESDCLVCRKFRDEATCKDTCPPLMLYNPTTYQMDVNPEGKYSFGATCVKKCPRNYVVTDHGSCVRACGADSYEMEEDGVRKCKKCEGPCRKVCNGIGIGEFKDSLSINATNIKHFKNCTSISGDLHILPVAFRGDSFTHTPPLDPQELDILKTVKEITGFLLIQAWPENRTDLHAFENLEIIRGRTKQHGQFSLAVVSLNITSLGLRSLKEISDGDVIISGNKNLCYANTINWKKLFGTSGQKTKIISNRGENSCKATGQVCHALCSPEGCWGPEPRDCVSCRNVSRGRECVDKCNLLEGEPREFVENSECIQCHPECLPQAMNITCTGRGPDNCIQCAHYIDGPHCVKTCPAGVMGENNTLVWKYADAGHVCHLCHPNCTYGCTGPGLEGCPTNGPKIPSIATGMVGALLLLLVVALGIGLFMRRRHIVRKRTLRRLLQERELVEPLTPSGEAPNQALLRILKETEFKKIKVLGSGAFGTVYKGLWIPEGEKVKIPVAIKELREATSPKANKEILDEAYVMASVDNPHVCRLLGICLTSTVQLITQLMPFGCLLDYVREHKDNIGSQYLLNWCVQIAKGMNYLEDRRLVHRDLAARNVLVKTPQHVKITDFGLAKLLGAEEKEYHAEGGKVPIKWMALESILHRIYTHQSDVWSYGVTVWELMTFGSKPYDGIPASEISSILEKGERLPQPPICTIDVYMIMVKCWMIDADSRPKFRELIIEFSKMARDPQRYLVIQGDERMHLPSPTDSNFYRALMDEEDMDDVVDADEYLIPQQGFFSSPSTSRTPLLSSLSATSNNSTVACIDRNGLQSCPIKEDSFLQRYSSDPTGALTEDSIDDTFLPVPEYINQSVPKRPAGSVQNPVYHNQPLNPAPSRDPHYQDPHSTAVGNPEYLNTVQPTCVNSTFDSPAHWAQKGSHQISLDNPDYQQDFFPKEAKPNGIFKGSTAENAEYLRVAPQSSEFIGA
compound,measurement,setting,value
"COc1ccc(/C=C\c2cc(OC)c(OC)c(OC)c2)cc1O [CA-4, combretastatin A-4]",IC50,"MDA-MB-435 cancer cells; Homo sapiens, MDA-MB-435",3.47 ± 0.6 nM
same,EC50,"A-10 cells; Rattus norvegicus, A10, Table 2, read-out: Microtubule depolymerization EC50",13.1 nM
same,IC50,"[1]; SK-OV-3, read-out: IC50 ± SD Pgp expressing SK-OV-3 MDR1-6-6",6.6 ± 1.3 nM
same,IC50,Parental HeLa,4.7 ± 0.2 nM
same,Inhibition of colchicine binding (% inhibition ± SD),[2],97%
same,IC50,Parental OVCAR-8,6 ± 0.7 nM
same,IC50,[3],9 ± 2 nM
Cc1nc2c(c(N(C)c3ccc(S(C)(=O)=O)cc3)n1)CCC2 [Section II compound 5],"MS Peak Area in 60 min sample, HPLC area","[4]; Section II compound 3 incubated with human liver microsomes, 60 min","98,900"
same,"MS Peak Area in 60 min sample, Percentage (%)","[4]; Section II compound 3 incubated with human liver microsomes, 60 min, parent and metabolites",2.2%
CC(=O)O[C@H]1C(=O)[C@@]2(C)[C@H]([C@H](OC(=O)c3ccccc3)[C@]3(O)C[C@H](OC(=O)[C@H](O)[C@@H](NC(=O)c4ccccc4)c4ccccc4)C(C)=C1C3(C)C)[C@]1(OC(C)=O)CO[C@@H]1C[C@@H]2O [paclitaxel],IC50,Parental OVCAR-8,10 nM
same,IC50,[3],5000 nM
CCCn1ccc2nc(C)nc(N(C)c3ccc(OC)cc3)c21.Cl [3•HCl],IC50,PDGFR-β,> 200 nM
same,IC50,EGFR,89.3 ± 9.2 nM
same,IC50,MDA-MB-435 cancer cells,8.8 ± 3.4 nM
same,EC50,"A-10 cells; Table 2, read-out: Microtubule depolymerization EC50",20 nM
same,tumor volume vs control treated mice,[5]; p=0.0003,significantly smaller
same,tumor volume vs PTX (10 mg/kg) treated mice,[5]; p=0.0333,significantly smaller
same,IC50,A431,107 ± 18 nM
same,final average tumor mass compared to the vehicle,"MDA-MB-435 xenograft; Day 15, IP 75 mg/kg",statistically significant (p<0.001) lower final average tumor mass
same,mouse weight change,"MDA-MB-435 xenograft; IP 75 mg/kg, compared to the vehicle",recoverable weight loss
same,adverse effects / toxicity in xenograft trial,"MDA-MB-435 xenograft; IP 75 mg/kg, 75 mg/kg",did not induce any noticeable adverse effects or toxicities; also recorded: no apparent toxicity
same,adverse effects / toxicity in xenograft trial,MDA-MB-435 xenograft; [7],no evidence of effects on either central or peripheral nervous system
same,tumor growth during the trial,"MDA-MB-435 xenograft; IP 75 mg/kg, nude mice",inhibited tumor growth
same,antitumor effects,"MDA-MB-435 xenograft; IP 75 mg/kg, 75 mg/kg",statistically significant antitumor effects (p<0.001)
same,antitumor effects,MDA-MB-435 xenograft; [7],highly statistically significant (p<0.001) antitumor effects
same,tumors vs control,"MDA-MB-435 xenograft; days 9, 11 and 15, 75 mg/kg, p<0.01 days 9 and 11, p<0.0001 day 15",significantly smaller
same,antitumor effects,"MDA-MB-231 xenograft; MDA-MB-231 xenograft, 3.HCl 75 mg/kg IP, paclitaxel 10 mg/kg IP",statistically significant antitumor effects comparable to paclitaxel
same,tumors vs control,"MDA-MB-231 xenograft; days 10 and 15, 75 mg/kg, p<0.01 and p<0.0001",significantly smaller
CSc1ccc(N(C)c2nc(C)nc3c2CCC3)cc1 [Compound 3],EC50,"A-10 cells; Rattus norvegicus, A10, read-out: EC50 in A-10 cells (Concentration that causes 50% tubulin loss in A-10 cells), Table 4, Section II compounds",12.6 nM
same,IC50,Parental SK-OV-3,7.2 ± 0.6 nM
same,IC50,"[1]; SK-OV-3, Table 6, read-out: IC50 ± SD Pgp expressing SK-OV-3 MDR1-6-6",9.28 ± 0.42 nM
same,IC50,Parental HeLa,6.95 ± 0.53 nM
same,IC50,[6],5.26 ± 0.78 nM
same,IC50,Parental OVCAR-8,500 ± 100 nM
same,IC50,[3],210 ± 10 nM
Cc1nc2c(c(N(C)c3ccc([S+](C)[O-])cc3)n1)CCC2 (centres unmarked) [Section II compound 4],"MS Peak Area in 60 min sample, HPLC area",[4],"2,199,500"
